Measured values as given in patent US12454510B2, “Isophthalamide compound and use thereof” (METISA BIOTECHNOLOGY CO., LTD, priority 2019, dated 2025).
Like-named read-outs stand apart in the source and are kept apart here.

Legend:
Format in all cases: in vivo
Plutella xylostella = assay: Insecticidal activity against Plutella xylostella, airbrush spray on cabbage leaf discs; conditions: foliar, 72 h; for pest or weed control at 5 µg/mL: 5 mg/L, Table 5, read-out: Lethality rate (%, 3 days after the treatment) 5 mg/L
Protocol: (§1) After being dissolved in a mixed solvent of acetone/methanol (1:1), the test compound was diluted with water containing 0.1% (wt) Tween 80 to the desired concentration.
(§2) With Leucania separata, Plutella xylostella, and Chilo suppressalis as targets, airbrush spray method was used for the determination of the insecticidal activity.
(§3) Determination method: Cabbage leaves were punched into leaf discs with a diameter of 2 cm with a puncher, and Airbrush spray treatment was carried out at a pressure of 10 psi (approximately 0.7 kg/cm^2) on the front and back sides of each leaf disc, with a spray volume of the compound to be tested of 0.5 ml. After drying in the shade, 10 of 3rd instar larvae were introduced for each treatment, and each treatment was repeated 3 times for. After the treatment, it was placed in an observation room at 25° C. and a relative humidity of 60-70%, and 3 days after the treatment, the number of surviving insects was investigated, and the mortality rate was calculated.

Leucania separata = assay: Insecticidal activity against Leucania separata, airbrush spray on corn leaf sections; conditions: Mythimna separata, 72 h; dose 0.05 mg/L, 3 days after the treatment, 3rd instar larvae; read-out: lethality rate against Leucania separata
Protocol: as §1, §2
as §3, with “Corn” for “Cabbage”, “cut” for “punched”, “into” for “into leaf discs with a diameter of”, “leaf sections,” for “with a puncher,”, “section,” for “disc,”, “times.” for “times for.”

Chilo suppressalis = assay: Insecticidal activity against Chilo suppressalis, sprayed Oryza sativa seedlings/stalks; conditions: for Lethality rate (%, 3 days after the treatment) 0.5 mg/L / Lethality rate (%, 3 days after the treatment) 1 mg/L / Lethality rate (%, 3 days after the treatment) 10 mg/L: parallel comparison test, Table 6; for pest or weed control at 0.25 µg/mL / pest or weed control at 0.5 µg/mL / pest or weed control at 1 µg/mL: Chilo suppressalis, 72 h, 3 days after the treatment, 3rd instar larvae, read-out: lethality rate against Chilo suppressalis; for pest or weed control at 0.25 µg/mL: dose 0.25 mg/L; for pest or weed control at 0.5 µg/mL: dose 0.5 mg/L; for pest or weed control at 1 µg/mL: dose 1 mg/L
Protocol: as §1, §2
Determination method: 1) Preparation of Oryza sativa seedlings: Oryza sativa was cultivated in a constant temperature room (a temperature of 26-28V, a relative humidity of about 60-80%, and a light illumination of 16 hL:8 hD) in a small plastic cup with a diameter of 4.5 cm and a height of 4 cm, and when the Oryza sativa grew up to the 4-5 leaf stage, robust and consistent Oryza sativa seedlings were selected for chemical treatment, and 3 repetitions were performed for each treatment. 2) Preparation for test insects: Chilo suppressalis at 3rd instar larvae were raised continuously indoors. 3) The Oryza sativa stems were sprayed and insects were introduced. Spraying was performed uniformly on the whole plant of the Oryza sativa seedlings, with 15 ml of compound solution for each treatment. The blank control was treated first, and then the above operations were repeated in the order of the test concentration from low to high. After the Oryza sativa seedlings were sprayed, they were placed in a cool place to dry the liquid, and about 5 cm of stalks at the base of the stems were cut and fed to the test insects. A glass petri dish with a diameter of 90 mm was placed with filter paper at the bottom of the dish, and then was moisturized by adding water. After that, about 5 rice stalks and 10 larvae were placed in each dish, and the petri dish was sealed with a non-woven fabric and placed in a constant temperature room for cultivation. The number of remaining live insects was investigated 3 days after the treatment.

[1] = 0.05 mg/L, parallel comparison test, Table 5, read-out: Lethality rate (%, 3 days after the treatment) 0.05 mg/L
[2] = 0.5 mg/L, parallel comparison test, Table 5, read-out: Lethality rate (%, 3 days after the treatment) 0.5 mg/L
[3] = 1 mg/L, parallel comparison test, Table 5, read-out: Lethality rate (%, 3 days after the treatment) 1 mg/L
[4] = dose 0.05 mg/L, 3 days after the treatment, 3rd instar larvae, read-out: lethality rate against Plutella xylostella
[5] = dose 0.5 mg/L, 3 days after the treatment, 3rd instar larvae, read-out: lethality rate against Plutella xylostella
[6] = dose 1 mg/L, 3 days after the treatment, 3rd instar larvae, read-out: lethality rate against Plutella xylostella

Structure (SMILES) | pest or weed control at 0.05 µg/mL (Plutella xylostella; [1]) [%] | pest or weed control at 0.5 µg/mL (Plutella xylostella; [2]) [%] | pest or weed control at 1 µg/mL (Plutella xylostella; [3]) [%] | pest or weed control at 5 µg/mL (Plutella xylostella; parallel comparison test) [%] | pest or weed control at 0.05 µg/mL (Plutella xylostella; [4]) [%] | pest or weed control at 0.5 µg/mL (Plutella xylostella; [5]) [%] | pest or weed control at 1 µg/mL (Plutella xylostella; [6]) [%] | pest or weed control at 0.05 µg/mL (Leucania separata) [%] | Lethality rate (%, 3 days after the treatment) 0.5 mg/L (Chilo suppressalis) [%] | Lethality rate (%, 3 days after the treatment) 1 mg/L (Chilo suppressalis) [%] | Lethality rate (%, 3 days after the treatment) 10 mg/L (Chilo suppressalis) [%] | pest or weed control at 0.25 µg/mL (Chilo suppressalis) [%] | pest or weed control at 0.5 µg/mL (Chilo suppressalis) [%] | pest or weed control at 1 µg/mL (Chilo suppressalis) [%]
N#CCCN(C(=O)c1ccc(F)nc1)c1cccc(C(=O)Nc2c(Br)cc(C(F)(C(F)(F)F)C(F)(F)F)cc2C(F)(F)F)c1F [Compound 10] | 100 | 100 | 100 | 100 | ≥ 90 | ≥ 90 | ≥ 90 | ≥ 90 | 100 | 100 | 100 | ≥ 90 | ≥ 90 | ≥ 90
N#CCCCCN(C(=O)c1ccc(C(F)(F)F)nc1)c1cccc(C(=O)Nc2c(Br)cc(C(F)(C(F)(F)F)C(F)(F)F)cc2C(F)(F)F)c1F [Compound 28] |  |  |  |  |  | ≥ 90 | ≥ 90 | ≥ 90 |  |  |  |  | ≥ 90 | ≥ 90
N#CCCN(C(=O)c1ccc(F)nc1)c1cccc(C(=O)Nc2c(Br)cc(C(F)(C(F)(F)F)C(F)(F)F)cc2Br)c1F [Compound 2] | 43.3 | 86.7 | 100 | 100 |  |  | ≥ 90 | ≥ 90 | 86.67 | 100 | 100 |  |  | ≥ 90
N#CCCCCN(C(=O)c1ccc(F)nc1)c1cccc(C(=O)Nc2c(Br)cc(C(F)(C(F)(F)F)C(F)(F)F)cc2C(F)(F)F)c1F [Compound 12] |  |  |  |  | ≥ 90 | ≥ 90 | ≥ 90 | ≥ 90 |  |  |  | ≥ 90 | ≥ 90 | ≥ 90
N#CCCCN(C(=O)c1ccc(F)nc1)c1cccc(C(=O)Nc2c(I)cc(C(F)(C(F)(F)F)C(F)(F)F)cc2C(F)(F)F)c1F [Compound 15] |  |  |  |  | ≥ 90 | ≥ 90 | ≥ 90 | ≥ 90 |  |  |  | ≥ 90 | ≥ 90 | ≥ 90
N#CCN(C(=O)c1ccc(C(F)(F)F)nc1)c1cccc(C(=O)Nc2c(I)cc(C(F)(C(F)(F)F)C(F)(F)F)cc2C(F)(F)F)c1F [Compound 29] |  |  |  |  |  | ≥ 90 | ≥ 90 | ≥ 90 |  |  |  | ≥ 90 | ≥ 90 | ≥ 90
